Source: patent US11427549B2, “Pyrimidinyloxy benzo-fused compounds as herbicides” (FMC Corporation, priority 2017, dated 2022)

What was measured:
[1] = test system: barnyardgrass (Echinochloa crus-galli); assay: Test A preemergence, barnyardgrass; type: in vivo; conditions: Echinochloa crus-galli, pre-emergence, 240 h, 0 to 100 scale (0 no effect, 100 complete control), read-out: Plant response rating, Barnyardgrass; for pest or weed control at 31 g/ha: 31 g ai/ha; for pest or weed control at 125 g/ha: 125 g ai/ha
kochia (Kochia scoparia) [2] = assay: Test A preemergence, kochia; type: in vivo; conditions: Bassia scoparia, pre-emergence, 240 h, 0 to 100 scale (0 no effect, 100 complete control), read-out: Plant response rating, Kochia; for pest or weed control at 31 g/ha: 31 g ai/ha; for pest or weed control at 125 g/ha: 125 g ai/ha
[3] = test system: ragweed (common ragweed, Ambrosia elatior); assay: Test A preemergence, ragweed; type: in vivo; conditions: Ambrosia artemisiifolia, pre-emergence, 240 h, 0 to 100 scale (0 no effect, 100 complete control), read-out: Plant response rating, Ragweed; for pest or weed control at 31 g/ha: 31 g ai/ha; for pest or weed control at 125 g/ha: 125 g ai/ha
[4] = test system: ryegrass, Italian (Italian ryegrass, Lolium multiflorum); assay: Test A preemergence, ryegrass, Italian; type: in vivo; conditions: Lolium multiflorum, pre-emergence, 240 h, 0 to 100 scale (0 no effect, 100 complete control), read-out: Plant response rating, Ryegrass, Italian; for pest or weed control at 31 g/ha: 31 g ai/ha; for pest or weed control at 125 g/ha: 125 g ai/ha
[5] = test system: foxtail, giant (giant foxtail, Setaria faberii); assay: Test A preemergence, foxtail, giant; type: in vivo; conditions: Setaria faberi, pre-emergence, 240 h, 0 to 100 scale (0 no effect, 100 complete control), read-out: Plant response rating, Foxtail, Giant; for pest or weed control at 31 g/ha: 31 g ai/ha; for pest or weed control at 125 g/ha: 125 g ai/ha
[6] = test system: pigweed (Amaranthus retroflexus); assay: Test A preemergence, pigweed; type: in vivo; conditions: Amaranthus retroflexus, pre-emergence, 240 h, 0 to 100 scale (0 no effect, 100 complete control), read-out: Plant response rating, Pigweed; for pest or weed control at 31 g/ha: 31 g ai/ha; for pest or weed control at 125 g/ha: 125 g ai/ha
[7] = test system: barnyardgrass (Echinochloa crus-galli); assay: Test A postemergence, barnyardgrass; type: in vivo; conditions: Echinochloa crus-galli, post-emergence, 240 h, 0 to 100 scale (0 no effect, 100 complete control), read-out: Plant response rating, Barnyardgrass; for pest or weed control at 31 g/ha: 31 g ai/ha; for pest or weed control at 125 g/ha: 125 g ai/ha
kochia (Kochia scoparia) [8] = assay: Test A postemergence, kochia; type: in vivo; conditions: Bassia scoparia, post-emergence, 240 h, 0 to 100 scale (0 no effect, 100 complete control), read-out: Plant response rating, Kochia; for pest or weed control at 31 g/ha: 31 g ai/ha; for pest or weed control at 125 g/ha: 125 g ai/ha
[9] = test system: ragweed (common ragweed, Ambrosia elatior); assay: Test A postemergence, ragweed; type: in vivo; conditions: Ambrosia artemisiifolia, post-emergence, 240 h, 0 to 100 scale (0 no effect, 100 complete control), read-out: Plant response rating, Ragweed; for pest or weed control at 31 g/ha: 31 g ai/ha; for pest or weed control at 125 g/ha: 125 g ai/ha
[10] = test system: ryegrass, Italian (Italian ryegrass, Lolium multiflorum); assay: Test A postemergence, ryegrass, Italian; type: in vivo; conditions: Lolium multiflorum, post-emergence, 240 h, 0 to 100 scale (0 no effect, 100 complete control), read-out: Plant response rating, Ryegrass, Italian; for pest or weed control at 31 g/ha: 31 g ai/ha; for pest or weed control at 125 g/ha: 125 g ai/ha
[11] = test system: pigweed (Amaranthus retroflexus); assay: Test A postemergence, pigweed; type: in vivo; conditions: Amaranthus retroflexus, post-emergence, 240 h, 0 to 100 scale (0 no effect, 100 complete control), read-out: Plant response rating, Pigweed; for pest or weed control at 31 g/ha: 31 g ai/ha; for pest or weed control at 125 g/ha: 125 g ai/ha
[12] = test system: wheat (Triticum aestivum); assay: Test A postemergence, wheat; type: in vivo; conditions: Triticum aestivum, post-emergence, 240 h, 0 to 100 scale (0 no effect, 100 complete control), read-out: Plant response rating, Wheat; for plant injury at 31 g/ha: 31 g ai/ha; for plant injury at 125 g/ha: 125 g ai/ha
corn (Zea mays) = assay: Test A postemergence, corn; type: in vivo; conditions: Zea mays, post-emergence, 240 h, 0 to 100 scale (0 no effect, 100 complete control); for Corn plant response rating (crop injury, 0 = no effect, 100 = complete kill) at 31 g/ha: 31 g ai/ha; for Corn plant response rating (crop injury, 0 = no effect, 100 = complete kill) at 125 g/ha: 125 g ai/ha
[13] = test system: blackgrass (Alopecurus myosuroides); assay: Test A postemergence, blackgrass; type: in vivo; conditions: Alopecurus myosuroides, post-emergence, 240 h, 0 to 100 scale (0 no effect, 100 complete control), read-out: Plant response rating, Blackgrass; for pest or weed control at 31 g/ha: 31 g ai/ha; for pest or weed control at 125 g/ha: 125 g ai/ha
[14] = test system: galium (catchweed bedstraw, Galium aparine); assay: Test A postemergence, galium; type: in vivo; conditions: Galium, post-emergence, 240 h, 0 to 100 scale (0 no effect, 100 complete control), read-out: Plant response rating, Galium; for pest or weed control at 31 g/ha: 31 g ai/ha; for pest or weed control at 125 g/ha: 125 g ai/ha
rice (Oryza sativa) = assay: Test B flooded paddy test, rice; conditions: Oryza sativa, read-out: Plant response rating, Rice (0 to 100 scale, 0 is no effect, 100 is complete control)
[15] = test system: ducksalad (Heteranthera limosa); assay: Test B flooded paddy test, ducksalad; conditions: Heteranthera limosa, read-out: Plant response rating, Ducksalad (0 to 100 scale, 0 is no effect, 100 is complete control)
[16] = test system: barnyardgrass (Echinochloa crus-galli); assay: Test B flooded paddy test, barnyardgrass; conditions: Echinochloa crus-galli, read-out: Plant response rating, Barnyardgrass (0 to 100 scale, 0 is no effect, 100 is complete control)

SMILES | pest or weed control at 31 g/ha [1] | pest or weed control at 125 g/ha [1] | pest or weed control at 31 g/ha (kochia (Kochia scoparia) [2]) | pest or weed control at 125 g/ha (kochia (Kochia scoparia) [2]) | pest or weed control at 31 g/ha [4] | pest or weed control at 125 g/ha [4] | pest or weed control at 31 g/ha [5] | pest or weed control at 125 g/ha [5] | pest or weed control at 31 g/ha [6] | pest or weed control at 125 g/ha [6] | pest or weed control at 31 g/ha [7] | pest or weed control at 125 g/ha [7] | pest or weed control at 31 g/ha (kochia (Kochia scoparia) [8]) | pest or weed control at 125 g/ha (kochia (Kochia scoparia) [8]) | pest or weed control at 31 g/ha [9] | pest or weed control at 125 g/ha [9] | pest or weed control at 31 g/ha [10] | pest or weed control at 125 g/ha [10] | pest or weed control at 31 g/ha [11] | pest or weed control at 125 g/ha [11] | further results
O=C1O[C@@H](CCC(F)(F)F)c2c(Oc3ncc(Cl)cn3)cccc21 [Compound 18, (3S)-4-[(5-Chloro-2-pyrimidinyl)oxy]-3-(3,3,3-trifluoropropyl)-1(3H)-isobenzofuranone] | 0% | 0% | 0% | 0% | 0% | 0% | 0% | 0% | 0% | 0% | 0% | 0% | 0% | 10% | 0% | 0% | 0% | 0% | 10% | 20% | pest or weed control at 31 g/ha [3]: 0%; pest or weed control at 125 g/ha [3]: 0%; plant injury at 31 g/ha [12]: 0%; plant injury at 125 g/ha [12]: 0%; Corn plant response rating (crop injury, 0 = no effect, 100 = complete kill) at 31 g/ha (corn (Zea mays)): 0%; Corn plant response rating (crop injury, 0 = no effect, 100 = complete kill) at 125 g/ha (corn (Zea mays)): 10%; pest or weed control at 31 g/ha [13]: 0%; pest or weed control at 125 g/ha [13]: 0%; pest or weed control at 31 g/ha [14]: 0%; pest or weed control at 125 g/ha [14]: 10%; plant injury at 250 g/ha (rice (Oryza sativa)): 0%; pest or weed control at 250 g/ha [15]: 0%; pest or weed control at 250 g/ha [16]: 0%
O=C1OC(CCC(F)(F)F)Cc2c(Oc3ncc(Cl)cn3)cccc21 (stereo not shown) [Compound 23, 5-[(5-Chloro-2-pyrimidinyl)oxy]-3,4-dihydro-3-(3,3,3-trifluoropropyl)-1H-2-benzopyran-1-one] | 0% | 30% | 0% | 60% | 0% | 0% | 0% | 40% | 20% | 100% | 20% | 20% | 20% | 70% | 0% | 10% | 0% | 0% | 60% | 70% | pest or weed control at 31 g/ha [3]: 0%; pest or weed control at 125 g/ha [3]: 0%; plant injury at 31 g/ha [12]: 20%; plant injury at 125 g/ha [12]: 30%; Corn plant response rating (crop injury, 0 = no effect, 100 = complete kill) at 31 g/ha (corn (Zea mays)): 10%; Corn plant response rating (crop injury, 0 = no effect, 100 = complete kill) at 125 g/ha (corn (Zea mays)): 20%; pest or weed control at 31 g/ha [13]: 20%; pest or weed control at 125 g/ha [13]: 30%; pest or weed control at 31 g/ha [14]: 40%; pest or weed control at 125 g/ha [14]: 70%; plant injury at 250 g/ha (rice (Oryza sativa)): 0%; pest or weed control at 250 g/ha [15]: 0%; pest or weed control at 250 g/ha [16]: 0%
FC(F)(F)CCC1COc2cccc(Oc3ncc(Cl)cn3)c21 (stereo not shown) [Compound 36, 5-Chloro-2-[[2,3-dihydro-3-(3,3,3-trifluoropropyl)-4-benzofuranyl]oxy]pyrimidine] | 0% | 0% | 0% | 0% | 0% | 0% | 0% | 60% | 0% | 0% | 0% | 10% | 30% | 50% | 0% | 0% | 0% | 0% | 10% | 10% | plant injury at 31 g/ha [12]: 0%; plant injury at 125 g/ha [12]: 0%; Corn plant response rating (crop injury, 0 = no effect, 100 = complete kill) at 31 g/ha (corn (Zea mays)): 0%; Corn plant response rating (crop injury, 0 = no effect, 100 = complete kill) at 125 g/ha (corn (Zea mays)): 0%; pest or weed control at 31 g/ha [13]: 0%; pest or weed control at 125 g/ha [13]: 0%; pest or weed control at 31 g/ha [14]: 10%; pest or weed control at 125 g/ha [14]: 10%; plant injury at 250 g/ha (rice (Oryza sativa)): 0%; pest or weed control at 250 g/ha [15]: 50%; pest or weed control at 250 g/ha [16]: 0%
